Data as given in US20060040957A1, “BICYCLIC PYRIMIDINE MATRIX METALLOPROTEINASE INHIBITORS” (priority 2001, published 2006).
Structures can show the parent of a compound that is named as a salt. Where two headings read alike, the source gives them in different places.

How the values were obtained:
[1] = target: MMP-13CD (catalytic domain of collagenase 3) (Homo sapiens, UniProt P45452); assay: Thiopeptolide substrate hydrolysis assay, MMP-13CD; type: biochemical; settings: thiopeptolide substrate, HEPES pH 7.0, 22° C.
Excerpt: (§1) Thiopeptolide substrates show virtually no decomposition or hydrolysis at or below neutral pH in the absence of a matrix metalloproteinase enzyme.

[2] = target: T1, MMP-2FL (full length Gelatinase A) (Homo sapiens, UniProt P08253); assay: Thiopeptolide substrate hydrolysis assay, MMP-2FL; type: biochemical; settings: HEPES pH 7.0, 22° C., read-out: IC50 (μM) Versus Certain MMPs: MMP-02 FL
T1 sequence (P08253 110-660): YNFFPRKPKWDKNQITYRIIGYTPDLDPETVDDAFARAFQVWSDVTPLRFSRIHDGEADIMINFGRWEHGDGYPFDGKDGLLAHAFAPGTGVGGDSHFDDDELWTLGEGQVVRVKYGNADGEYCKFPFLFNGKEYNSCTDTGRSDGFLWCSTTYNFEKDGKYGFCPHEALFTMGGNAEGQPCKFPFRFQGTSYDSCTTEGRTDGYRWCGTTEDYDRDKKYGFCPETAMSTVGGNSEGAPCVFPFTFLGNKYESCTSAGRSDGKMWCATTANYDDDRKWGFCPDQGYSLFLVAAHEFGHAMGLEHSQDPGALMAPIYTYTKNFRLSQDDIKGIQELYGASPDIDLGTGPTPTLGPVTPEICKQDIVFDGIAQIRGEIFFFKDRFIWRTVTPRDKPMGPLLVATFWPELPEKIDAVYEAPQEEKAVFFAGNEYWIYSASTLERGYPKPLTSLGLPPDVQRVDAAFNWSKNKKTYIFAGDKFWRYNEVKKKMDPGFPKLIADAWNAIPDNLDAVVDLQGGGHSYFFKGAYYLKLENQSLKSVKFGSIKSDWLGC
Excerpt: (§2) The invention compounds of Formula I have been evaluated in standard assays for their ability to inhibit the catalytic activity of various MMP enzymes.
as §1
(§3) Several representative compounds have been evaluated for their ability to inhibit various matrix metalloproteinase enzymes.

[3] = target: MMP-14CD (catalytic domain of MMP-14) (Homo sapiens, UniProt P50281); assay: Thiopeptolide substrate hydrolysis assay, MMP-14CD; type: biochemical; settings: HEPES pH 7.0, 22° C., read-out: IC50 (μM) Versus Certain MMPs: MMP-14 CD
Excerpt: as §2, §1, §3

[4] = target: T2, MMP-7FL (full length matrilysin) (Homo sapiens, UniProt P09237); assay: Thiopeptolide substrate hydrolysis assay, MMP-7FL; type: biochemical; settings: HEPES pH 7.0, 22° C., read-out: IC50 (μM) Versus Certain MMPs: MMP-07 FL
T2 sequence (P09237 95-267): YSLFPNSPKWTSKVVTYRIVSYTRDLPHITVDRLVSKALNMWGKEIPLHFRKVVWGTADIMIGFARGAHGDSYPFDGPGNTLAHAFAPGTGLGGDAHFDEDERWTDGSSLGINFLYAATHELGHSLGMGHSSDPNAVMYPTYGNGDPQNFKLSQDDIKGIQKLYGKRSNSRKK
Excerpt: as §2, §1, §3

[5] = target: MMP-9FL (full length Gelatinase B) (Homo sapiens, UniProt P14780); assay: Thiopeptolide substrate hydrolysis assay, MMP-9FL; type: biochemical; settings: HEPES pH 7.0, 22° C., read-out: IC50 (μM) Versus Certain MMPs: MMP-09 FL
Excerpt: as §2, §1, §3

[6] = read-out: IC50 (μM) Versus Certain MMPs: MMP-13 CD

MMP-9FL (full length Gelatinase B), sequence (P14780 94-707, species assumed): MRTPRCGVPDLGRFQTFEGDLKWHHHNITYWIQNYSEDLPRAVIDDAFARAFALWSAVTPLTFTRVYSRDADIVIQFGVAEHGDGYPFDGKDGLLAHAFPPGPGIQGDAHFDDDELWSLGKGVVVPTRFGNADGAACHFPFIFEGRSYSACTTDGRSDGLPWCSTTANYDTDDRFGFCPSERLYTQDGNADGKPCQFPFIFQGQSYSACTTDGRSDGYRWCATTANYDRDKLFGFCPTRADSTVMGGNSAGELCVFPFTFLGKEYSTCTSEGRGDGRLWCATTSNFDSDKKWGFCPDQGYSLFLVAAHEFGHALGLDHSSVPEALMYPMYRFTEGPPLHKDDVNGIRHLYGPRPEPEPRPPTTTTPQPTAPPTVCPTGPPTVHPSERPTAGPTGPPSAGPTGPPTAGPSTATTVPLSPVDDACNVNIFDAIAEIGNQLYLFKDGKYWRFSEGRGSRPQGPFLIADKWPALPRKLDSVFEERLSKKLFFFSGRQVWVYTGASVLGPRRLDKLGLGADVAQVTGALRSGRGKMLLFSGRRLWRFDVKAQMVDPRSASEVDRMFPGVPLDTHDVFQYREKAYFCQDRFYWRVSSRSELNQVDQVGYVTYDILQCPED

SMILES	melting point	IC50 [1, 6] [µM]	IC50 [2] [µM]	IC50 [3] [µM]	IC50 [4] [µM]	IC50 [5] [µM]	IC50 ([1]; IC50 (μM) Versus Certain MMPs: MMP-13 CD) [µM]
O=C(NCc1ccccc1)c1cn2c(=O)n(Cc3ccncc3)c(=O)cc2s1 (as salt: hydrochloride) (hydrate or solvate) [Example 15, 6-(4-Pyridylmethyl)-5,7-dioxo-6,7-dihydro-5H-thiazolo[3,2-c]pyrimidine-2-carboxylic acid benzylamide hydrochloride]	> 210 °C	–	–	–	–	–	–
O=c1cc2sccn2c(=O)n1Cc1ccc(Cl)cc1 [6-(4-Chlorobenzyl)-thiazolo[3,2-c]pyrimidine-5,7-dione]	152 to 153.5 °C	> 100	–	–	–	–	–
O=C(NCc1ccccc1)c1cn2c(=O)n(C(=O)c3ccccc3)c(=O)cc2s1 [Example 11, 6-Benzoyl-5,7-dioxo-6,7-dihydro-5H-thiazolo[3,2-c]pyrimidine-2-carboxylic acid benzylamide]	204 to 207 °C (dec.)	–	> 30	> 30	> 30	> 30	–
O=C(NCc1ccccc1)c1cn2c(=O)n(Cc3ccc(Cl)c(Cl)c3)c(=O)cc2s1 [Example 12, 6-(3,4-Dichlorobenzyl)-5,7-dioxo-6,7-dihydro-5H-thiazolo[3,2-c]pyrimidine-2-carboxylic acid benzylamide]	216 to 217 °C	0.293	> 100	> 30	20	> 30	–
O=C(NCc1ccccc1)c1cn2c(=O)n(Cc3ccc(Cl)cc3)c(=O)cc2s1 [Example 13, 6-(4-Chlorobenzyl)-5,7-dioxo-6,7-dihydro-5H-thiazolo[3,2-c]pyrimidine-2-carboxylic acid benzylamide]	> 220 °C	–	> 100	> 100	> 100	> 100	–
O=C(NCc1ccc(Cl)c(Cl)c1)c1cn2c(=O)n(Cc3ccc(Cl)cc3)c(=O)cc2s1 [Example 14, 6-(4-Chlorobenzyl)-5,7-dioxo-6,7-dihydro-5H-thiazolo[3,2-c]pyrimidine-2-carboxylic acid 3,4-dichlorobenzylamide]	218 to 219 °C	–	> 30	> 100	25	> 30	–
Cc1c(=O)n(Cc2ccccc2)c(=O)n2cc(C(=O)NCc3ccccc3)sc12 [Example 16, 6-Benzyl-8-methyl-5,7-dioxo-6,7-dihydro-5H-thiazolo[3,2-c]pyrimidine-2-carboxylic acid benzylamide]	176 to 178 °C	–	> 100	> 30	> 30	> 100	–
COc1ccc(CNC(=O)c2cn3c(=O)n(Cc4ccccc4)c(=O)c(C)c3s2)cc1 [Example 17, 6-Benzyl-8-methyl-5,7-dioxo-6,7-dihydro-5H-thiazolo[3,2-c]pyrimidine-2-carboxylic acid 4-methoxybenzylamide]	160 to 162 °C	–	> 30	> 30	> 30	> 30	–
Cc1c(=O)n(Cc2ccccc2)c(=O)n2cc(C(=O)NCc3ccc(Cl)c(Cl)c3)sc12 [Example 18, 6-Benzyl-8-methyl-5,7-dioxo-6,7-dihydro-5H-thiazolo[3,2-c]pyrimidine-2-carboxylic acid 3,4-dichlorobenzylamide]	180 to 182 °C	–	> 30	> 30	> 30	> 30	–
Cc1c(=O)n(Cc2ccccc2)c(=O)n2cc(C(=O)NCc3ccc4[nH]ccc4c3)sc12 [Example 34, 6-Benzyl-8-methyl-5,7-dioxo-6,7-dihydro-5H-thiazolo[3,2-c]pyrimidine-2-carboxylic acid(1H-indol-5-ylmethyl)-amide]	189 to 191 °C	–	–	–	–	–	23
Cc1c(=O)[nH]c(=O)n2ccsc12 [Example 53, 8-Methyl-thiazolo[3,2-c]pyrimidine-5,7-dione]	> 230 °C	> 100	–	–	–	–	–
Cc1c(=O)[nH]c(=O)n2cc(C(=O)O)sc12 [Example 54, 8-Methyl-5,7-dioxo-6,7-dihydro-5H-thiazolo[3,2-c]pyrimidine-2-carboxylic acid]	> 205 °C	–	–	–	–	–	–
COc1ccc(CNC(=O)c2cn3c(=O)n(Cc4ccc(C(=O)O)cc4)c(=O)c(C)c3s2)cc1 [Example 55, 4-[2-(4-Methoxy-benzylcarbamoyl)-8-methyl-5,7-dioxo-7H-thiazolo[3,2-c]pyrimidin-6-ylmethyl]-benzoic acid]	> 210 °C	–	–	–	–	–	–
COC(=O)c1ccc(Cn2c(=O)c(C)c3sc(C(=O)NCc4ccc(F)cc4)cn3c2=O)cc1Cl [Example 65, 2-Chloro-4-[2-(4-fluoro-benzylcarbamoyl)-8-methyl-5,7-dioxo-7H-thiazolo[3,2-c]pyrimidin-6-ylmethyl]-benzoic acid methyl ester]	176 to 178 °C	–	> 30	> 30	26	> 30	–
COC(=O)c1ccc(Cn2c(=O)c(C)c3sc(C(=O)NCc4ccc(F)cc4)cn3c2=O)cc1C [Example 68, 4-[2-(4-Fluoro-benzylcarbamoyl)-8-methyl-5,7-dioxo-7H-thiazolo[3,2-c]pyrimidin-6-ylmethyl]-2-methyl-benzoic acid methyl ester]	179 to 180 °C	–	> 100	> 100	> 100	> 100	–
COc1ccc(CNC(=O)c2cn3c(=O)n(Cc4ccc(Cl)c(Cl)c4)c(=O)cc3s2)cc1 [Example 102, 6-(3,4-Dichloro-benzyl)-5,7-dioxo-6,7-dihydro-5H-thiazolo[3,2-c]pyrimidine-2-carboxylic acid 4-methoxy-benzylamide]	206 to 207 °C	–	–	–	–	–	–
COC(=O)c1ccc(Cn2c(=O)c(C)c3sc(C(=O)NCc4ccc(OC)cc4)cn3c2=O)cc1 [Example 103, 4-[2-(4-Methoxy-benzylcarbamoyl)-8-methyl-5,7-dioxo-7H-thiazolo[3,2-c]pyrimidin-6-ylmethyl]-benzoic acid methyl ester]	163 to 165 °C	0.0106	65	> 100	> 100	> 100	–
Cc1c(=O)n(Cc2ccc(C(=O)OC(C)(C)C)cc2)c(=O)n2ccsc12 [Example 104, 4-(8-Methyl-5,7-dioxo-7H-thiazolo[3,2-c]pyrimidin-6-ylmethyl)-benzoic acid tert-butyl ester]	163 to 165 °C	–	–	–	–	–	–
COC(=O)c1ccc(Cn2c(=O)c(C)c3sc(C(=O)NCc4cccc(F)c4)cn3c2=O)cc1 [Example 105, 4-[2-(3-Fluoro-benzylcarbamoyl)-8-methyl-5,7-dioxo-7H-thiazolo[3,2-c]pyrimidin-6-ylmethyl]-benzoic acid methyl ester]	209 to 211 °C	–	> 30	> 30	27	> 30	–
COC(=O)c1ccc(Cn2c(=O)c(C)c3sc(C(=O)NCc4ccc(F)cc4)cn3c2=O)cc1 [Example 106, 4-[2-(4-Fluoro-benzylcarbamoyl)-8-methyl-5,7-dioxo-7H-thiazolo[3,2-c]pyrimidin-6-ylmethyl]-benzoic acid methyl ester]	> 215 °C	–	> 30	> 100	> 30	> 100	–
Cc1c(=O)n(Cc2ccc(C#N)cc2)c(=O)n2cc(C(=O)NCc3ccc(F)cc3)sc12 [Example 107, 6-(4-Cyano-benzyl)-8-methyl-5,7-dioxo-6,7-dihydro-5H-thiazolo[3,2-c]pyrimidine-2-carboxylic acid 4-fluoro-benzylamide]	> 220 °C	–	> 30	> 30	> 30	> 30	–
